Data as given in US20040156881A1, “Use of lignans in foods” (priority 2001, published 2004).

Assays:
[1] = tested on: Prostaglandin E2 (=PGE2) production by the human skin fibroblasts; experiment: PGE2 levels in PMA-induced human dermal fibroblasts (anti-inflammatory cell assay); assay type: cell-based; conditions: primary human foreskin fibroblasts, FIGS. 1 and 2; for concentration dependence of anti-inflammatory effect as measured by a reduction in PGE2: increasing concentrations; for anti-inflammatory effect (PGE2 level versus control+veh+PMA): three concentration levels
Method: It is emphasized that the anti-inflammatory effects were determined by in vitro tests wherein the Prostaglandin E2 (=PGE2) production by the human skin fibroblasts is measured after being induced by the inflammatory modulus phorbyl myristyl acetate (PMA). A reduction of the levels of PGE2 is indicative of the anti-inflammatory effect.
Fibroblast cell assay: Primary human foreskin fibroblasts at passage 2 (P2) were seeded into 96-well plates at 35000 cells/well and maintained for 24 hours in an atmosphere of 5% carbon dioxide in Dulbeccos Modified Eagles Medium (DMEM) supplemented with 10% foetal calf serum.
The lignan-compound (SECO or MAT) was added to fresh cell media (DMEM, supplemented with 10% foetal calf serum) in 100% ethanol (final concentration 1%) in triplicate and incubated for a further 24 hours. Phorbal myristate acetate (PMA) in ethanol/cell media ([…]) was added to the cells treated with the lignan compound (SECO) and the cells incubated for a further 24 hours. PMA represents an external stressor, which induces oxidative stress and inflammatory responses in cells. The fibroblasts/media were then analysed as described below immediately, or, snap frozen in liquid nitrogen and stored at −70° C. for future analysis. The cells were then counted to ensure no effect on cell number.
Different concentrations of SECO or MAT were used in the above method to study the effect of concentration. A series of control experiments were also carried out according to the above method; Control+veh+PMA (positive control), Control+veh (negative control) and control (standard control).
Prostaglandin E2 (PGE2) assay volumes of 50 μl culture medium were taken for PGE2 assay from the above samples after gently shaking the culture plate. PGE2 levels in the medium were determined with a Biotrak PGE2 immunoassay kit (Amersham, UK). The assay is based on the competition between unlabelled PGE2 in the sample and a fixed quantity of horseradish peroxidase labelled PGE2 for a limited amount of fixed PGE2 specific antibody. Concentrations of unlabelled sample PGE2 are determined according to a standard curve, which was obtained at the same time.

[2] = tested on: Procollagen-I and Decorin production by the human dermal fibroblasts; experiment: Procollagen-I and decorin synthesis in human dermal fibroblasts (anti-ageing cell assay, dot blot); assay type: cell-based; conditions: primary human foreskin fibroblasts, serum free DMEM, 24 hours, different concentration levels, FIGS. 3 and 4
Method: It is emphasized that the anti-ageing effects were determined by in vitro tests wherein the Procollagen-I and Decorin production by the human dermal fibroblasts is measured after being induced by the anti-ageing stimulus. An increase in the levels of Procollagen-I is indicative of the anti-ageing effect.
Preparation of Dermal Fibroblast Conditioned Medium: Primary human foreskin fibroblasts at passage 2 (P2) were seeded into 12-well plates at 40000 cells/well and maintained for 24 hours in an atmosphere of 5% carbon dioxide and 4% oxygen in Dulbeccos Modified Eagles Medium (DMEM) supplemented with 10% foetal calf serum. After this time the cells were washed with serum free DMEM and then incubated in fresh serum free DMEM for a further 60 hours. The fibroblast monolayers were then washed again with serum free DMEM.
The test reagent (MAT and SECO at different concentration levels) and vehicle control (1% ethanol final concentration) were added to the cells in triplicate in a final volume of 0.4 ml/well fresh serum free DMEM and incubated for a further 24 hours. This fibroblast conditioned medium was either analysed immediately, or, snap frozen in liquid nitrogen and stored at −70° C. for future analysis. The cells were then counted and data from the dot-blot analysis subsequently standardised to cell number. […]

SMILES	concentration dependence of anti-inflammatory effect as measured by a reduction in PGE2 [1]	anti-inflammatory effect (PGE2 level versus control+veh+PMA) [1]	anti-ageing effects (procollagen-I and decorin synthesis relative to vehicle treated control of 100 arbitrary units) [2]
COc1cc(C[C@H]2COC(=O)[C@@H]2Cc2ccc(O)c(OC)c2)ccc1O [MAT, matairesinol]	produced increasing anti-inflammatory effects	effective in producing an anti-inflammatory effect in human cells	showed increased anti-ageing effects in human cells compared to a control sample
COc1cc(C[C@@H](CO)[C@H](CO)Cc2ccc(O)c(OC)c2)ccc1O [SECO, secoisolariciresinol]	produced increasing anti-inflammatory effects	effective in producing an anti-inflammatory effect in human cells	showed increased anti-ageing effects in human cells compared to a control sample
